Experiments:
[1] = Test on the solubility in a simulated body fluid; format: physicochemical; settings: 0.01 M PBS pH 7.4, 37° C.
Experimental: Test on the Solubility in a Simulated Body Fluid
The concentration of the drug dissolved in the PBS buffered solution was determined with an HPLC-a method.

[2] = Test on the solubility in media at different pH; format: physicochemical
Experimental: Test on the Solubility in Media at Different pH
About 200 mg of solid powders of Preparation Example 10 and Preparation Example 15 were added in a 500 mL phosphate buffered solution at different pH values (50 mmol/L, pH 5.5, pH 6.5, pH 7.4, and pH 8.0) respectively, placed into a dissolution tester, kept at a constant temperature of 37° C., and paddle stirred at 50 rpm for 72 hours. Appropriate amounts of the suspension were taken out at 15 min, 30 min, 45 min, 1 h, 2 h, 4 h, 6 h, 8 h, 24 h, 32 h, 48 h, and 72 h respectively, and centrifuged immediately (15000 rpm, 5 min). The supernatant was diluted with methanol by a factor of two. The concentration of the drug dissolved in the PB buffer solution was determined with an HPLC-b method.

[3] = phosphate buffer pH 5.5, 37° C., 0.25 h
[4] = phosphate buffer pH 5.5, 37° C., 0.5 h
[5] = phosphate buffer pH 5.5, 37° C., 0.75 h
[6] = phosphate buffer pH 5.5, 37° C., 1 h
[7] = phosphate buffer pH 5.5, 37° C., 2 h
[8] = phosphate buffer pH 5.5, 37° C., 4 h
[9] = phosphate buffer pH 5.5, 37° C., 6 h
[10] = phosphate buffer pH 5.5, 37° C., 8 h
[11] = phosphate buffer pH 5.5, 37° C., 24 h
[12] = phosphate buffer pH 5.5, 37° C., 32 h
[13] = phosphate buffer pH 5.5, 37° C., 48 h
[14] = phosphate buffer pH 5.5, 37° C., 72 h
[15] = phosphate buffer pH 6.5, 37° C., 0.25 h
[16] = phosphate buffer pH 6.5, 37° C., 0.5 h
[17] = phosphate buffer pH 6.5, 37° C., 0.75 h
[18] = phosphate buffer pH 6.5, 37° C., 1 h
[19] = phosphate buffer pH 6.5, 37° C., 2 h
[20] = phosphate buffer pH 6.5, 37° C., 4 h
[21] = phosphate buffer pH 6.5, 37° C., 6 h
[22] = phosphate buffer pH 6.5, 37° C., 8 h
[23] = phosphate buffer pH 6.5, 37° C., 24 h
[24] = phosphate buffer pH 6.5, 37° C., 32 h
[25] = phosphate buffer pH 6.5, 37° C., 48 h
[26] = phosphate buffer pH 6.5, 37° C., 72 h
[27] = phosphate buffer pH 7.4, 37° C., 0.25 h
[28] = phosphate buffer pH 7.4, 37° C., 0.5 h
[29] = phosphate buffer pH 7.4, 37° C., 0.75 h
[30] = phosphate buffer pH 7.4, 37° C., 1 h
[31] = phosphate buffer pH 7.4, 37° C., 2 h
[32] = phosphate buffer pH 7.4, 37° C., 4 h
[33] = phosphate buffer pH 7.4, 37° C., 6 h
[34] = phosphate buffer pH 7.4, 37° C., 8 h
[35] = phosphate buffer pH 7.4, 37° C., 24 h
[36] = phosphate buffer pH 7.4, 37° C., 32 h
[37] = phosphate buffer pH 7.4, 37° C., 48 h
[38] = phosphate buffer pH 7.4, 37° C., 72 h
[39] = phosphate buffer pH 8.0, 37° C., 0.25 h
[40] = phosphate buffer pH 8.0, 37° C., 0.5 h
[41] = phosphate buffer pH 8.0, 37° C., 0.75 h
[42] = phosphate buffer pH 8.0, 37° C., 1 h
[43] = phosphate buffer pH 8.0, 37° C., 2 h
[44] = phosphate buffer pH 8.0, 37° C., 4 h
[45] = phosphate buffer pH 8.0, 37° C., 6 h
[46] = phosphate buffer pH 8.0, 37° C., 8 h
[47] = phosphate buffer pH 8.0, 37° C., 24 h
[48] = phosphate buffer pH 8.0, 37° C., 32 h
[49] = phosphate buffer pH 8.0, 37° C., 48 h
[50] = phosphate buffer pH 8.0, 37° C., 72 h

SMILES: CCCCN1CCCCC1C(=O)Nc1c(C)cccc1C.O=C(O)c1cc2ccccc2c(Cc2c(O)c(C(=O)O)cc3ccccc23)c1O [Preparation Example 10, mono(bupivacaine) pamoate]
- Compound concentration: Bupivacaine ([1]; 5 min): 722 µM
- Compound concentration: Pamoic acid ([1]; 5 min): 742.7 µM
- Compound concentration: Bupivacaine ([1]; 15 min): 833 µM
- Compound concentration: Pamoic acid ([1]; 15 min): 857.9 µM
- Compound concentration: Bupivacaine ([1]; 30 min): 885.9 µM
- Compound concentration: Pamoic acid ([1]; 30 min): 916.8 µM
- Compound concentration: Bupivacaine ([1]; 1 h): 938.7 µM
- Compound concentration: Pamoic acid ([1]; 1 h): 981.6 µM
- Compound concentration: Bupivacaine ([1]; 2 h): 909.7 µM
- Compound concentration: Pamoic acid ([1]; 2 h): 995.7 µM
- Compound concentration: Bupivacaine ([1]; 6 h): 83.3 µM
- Compound concentration: Pamoic acid ([1]; 6 h): 1867.3 µM
- Compound concentration: Bupivacaine ([1]; 24 h): 67 µM
- Compound concentration: Pamoic acid ([1]; 24 h): 2560.5 µM
- molar ratio of the solubility (bupivacaine to pamoic acid) ([2]; media at pH 5.5, pH 7.4 and pH 8.0, remained for 48 hours or less): around 1.0
- time for which the molar ratio of the solubility remained around 1.0 ([2]; medium at pH 6.5, decreased after a longer time): 8 h
- Molar concentration of Bupivacaine [2, 3]: 0.047 mmol/L
- Molar concentration of Pamoic acid [2, 3]: 0.046 mmol/L
- Molar concentration of Bupivacaine [2, 4]: 0.078 mmol/L
- Molar concentration of Pamoic acid [2, 4]: 0.076 mmol/L
- Molar concentration of Bupivacaine [2, 5]: 0.106 mmol/L
- Molar concentration of Pamoic acid [2, 5]: 0.103 mmol/L
- Molar concentration of Bupivacaine [2, 6]: 0.136 mmol/L
- Molar concentration of Pamoic acid [2, 6]: 0.132 mmol/L
- Molar concentration of Bupivacaine [2, 7]: 0.188 mmol/L
- Molar concentration of Pamoic acid [2, 7]: 0.182 mmol/L
- Molar concentration of Bupivacaine [2, 8]: 0.222 mmol/L
- Molar concentration of Pamoic acid [2, 8]: 0.218 mmol/L
- Molar concentration of Bupivacaine [2, 9]: 0.234 mmol/L
- Molar concentration of Pamoic acid [2, 9]: 0.232 mmol/L
- Molar concentration of Bupivacaine [2, 10]: 0.234 mmol/L
- Molar concentration of Pamoic acid [2, 10]: 0.23 mmol/L
- Molar concentration of Bupivacaine [2, 11]: 0.246 mmol/L
- Molar concentration of Pamoic acid [2, 11]: 0.244 mmol/L
- Molar concentration of Bupivacaine [2, 12]: 0.248 mmol/L
- Molar concentration of Pamoic acid [2, 12]: 0.248 mmol/L
- Molar concentration of Bupivacaine [2, 13]: 0.198 mmol/L
- Molar concentration of Pamoic acid [2, 13]: 0.236 mmol/L
- Molar concentration of Bupivacaine [2, 14]: 0.142 mmol/L
- Molar concentration of Pamoic acid [2, 14]: 0.224 mmol/L
- Molar concentration of Bupivacaine [2, 15]: 0.05 mmol/L
- Molar concentration of Pamoic acid [2, 15]: 0.053 mmol/L
- Molar concentration of Bupivacaine [2, 16]: 0.084 mmol/L
- Molar concentration of Pamoic acid [2, 16]: 0.09 mmol/L
- Molar concentration of Bupivacaine [2, 17]: 0.115 mmol/L
- Molar concentration of Pamoic acid [2, 17]: 0.124 mmol/L
- Molar concentration of Bupivacaine [2, 18]: 0.148 mmol/L
- Molar concentration of Pamoic acid [2, 18]: 0.160 mmol/L
- Molar concentration of Bupivacaine [2, 19]: 0.274 mmol/L
- Molar concentration of Pamoic acid [2, 19]: 0.296 mmol/L
- Molar concentration of Bupivacaine [2, 20]: 0.384 mmol/L
- Molar concentration of Pamoic acid [2, 20]: 0.414 mmol/L
- Molar concentration of Bupivacaine [2, 21]: 0.396 mmol/L
- Molar concentration of Pamoic acid [2, 21]: 0.424 mmol/L
- Molar concentration of Bupivacaine [2, 22]: 0.404 mmol/L
- Molar concentration of Pamoic acid [2, 22]: 0.448 mmol/L
- Molar concentration of Bupivacaine [2, 23]: 0.186 mmol/L
- Molar concentration of Pamoic acid [2, 23]: 0.440 mmol/L
- Molar concentration of Bupivacaine [2, 24]: 0.15 mmol/L
- Molar concentration of Pamoic acid [2, 24]: 0.426 mmol/L
- Molar concentration of Bupivacaine [2, 25]: 0.14 mmol/L
- Molar concentration of Pamoic acid [2, 25]: 0.428 mmol/L
- Molar concentration of Bupivacaine [2, 26]: 0.128 mmol/L
- Molar concentration of Pamoic acid [2, 26]: 0.416 mmol/L
- Molar concentration of Bupivacaine [2, 27]: 0.0555 mmol/L
- Molar concentration of Pamoic acid [2, 27]: 0.0605 mmol/L
- Molar concentration of Bupivacaine [2, 28]: 0.095 mmol/L
- Molar concentration of Pamoic acid [2, 28]: 0.105 mmol/L
- Molar concentration of Bupivacaine [2, 29]: 0.1315 mmol/L
- Molar concentration of Pamoic acid [2, 29]: 0.1465 mmol/L
- Molar concentration of Bupivacaine [2, 30]: 0.170 mmol/L
- Molar concentration of Pamoic acid [2, 30]: 0.190 mmol/L
- Molar concentration of Bupivacaine [2, 31]: 0.288 mmol/L
- Molar concentration of Pamoic acid [2, 31]: 0.320 mmol/L
- Molar concentration of Bupivacaine [2, 32]: 0.386 mmol/L
- Molar concentration of Pamoic acid [2, 32]: 0.430 mmol/L
- Molar concentration of Bupivacaine [2, 33]: 0.428 mmol/L
- Molar concentration of Pamoic acid [2, 33]: 0.476 mmol/L
- Molar concentration of Bupivacaine [2, 34]: 0.440 mmol/L
- Molar concentration of Pamoic acid [2, 34]: 0.486 mmol/L
- Molar concentration of Bupivacaine [2, 35]: 0.426 mmol/L
- Molar concentration of Pamoic acid [2, 35]: 0.550 mmol/L
- Molar concentration of Bupivacaine [2, 36]: 0.402 mmol/L
- Molar concentration of Pamoic acid [2, 36]: 0.592 mmol/L
- Molar concentration of Bupivacaine [2, 37]: 0.204 mmol/L
- Molar concentration of Pamoic acid [2, 37]: 0.498 mmol/L
- Molar concentration of Bupivacaine [2, 38]: 0.166 mmol/L
- Molar concentration of Pamoic acid [2, 38]: 0.458 mmol/L
- Molar concentration of Bupivacaine [2, 39]: 0.0575 mmol/L
- Molar concentration of Pamoic acid [2, 39]: 0.063 mmol/L
- Molar concentration of Bupivacaine [2, 40]: 0.099 mmol/L
- Molar concentration of Pamoic acid [2, 40]: 0.110 mmol/L
- Molar concentration of Bupivacaine [2, 41]: 0.1375 mmol/L
- Molar concentration of Pamoic acid [2, 41]: 0.154 mmol/L
- Molar concentration of Bupivacaine [2, 42]: 0.178 mmol/L
- Molar concentration of Pamoic acid [2, 42]: 0.200 mmol/L
- Molar concentration of Bupivacaine [2, 43]: 0.308 mmol/L
- Molar concentration of Pamoic acid [2, 43]: 0.344 mmol/L
- Molar concentration of Bupivacaine [2, 44]: 0.416 mmol/L
- Molar concentration of Pamoic acid [2, 44]: 0.468 mmol/L
- Molar concentration of Bupivacaine [2, 45]: 0.494 mmol/L
- Molar concentration of Pamoic acid [2, 45]: 0.554 mmol/L
- Molar concentration of Bupivacaine [2, 46]: 0.558 mmol/L
- Molar concentration of Pamoic acid [2, 46]: 0.624 mmol/L
- Molar concentration of Bupivacaine [2, 47]: 0.610 mmol/L
- Molar concentration of Pamoic acid [2, 47]: 0.688 mmol/L
- Molar concentration of Bupivacaine [2, 48]: 0.622 mmol/L
- Molar concentration of Pamoic acid [2, 48]: 0.702 mmol/L
- Molar concentration of Bupivacaine [2, 49]: 0.592 mmol/L
- Molar concentration of Pamoic acid [2, 49]: 0.694 mmol/L
- Molar concentration of Bupivacaine [2, 50]: 0.44 mmol/L
- Molar concentration of Pamoic acid [2, 50]: 0.7 mmol/L

— patent US11084790B2, “Insoluble complex or solvate thereof, pharmaceutical composition and use thereof” (Fruithy Holdings Limited, priority 2017, dated 2021)
